Test results reported in patent US20250263370A1 (Tay Therapeutics Limited, priority 2022, published 2025).
Where two headings read alike, the source gives them in different places.

Test: Beagle dog PK study 1 of Example 101 (propylene glycol-based formulation, IV and PO), with clinical observations
Type: in vivo
Conditions: for concentration at 0.083 h / concentration at 0.25 h / concentration at 0.5 h / concentration at 1 h / concentration at 2 h / concentration at 4 h / concentration at 8 h / concentration at 24 h / AUC(0-inf) / AUC(0-t) / C0 / half-life / MRT inf / Vd / Cmax / Tmax: beagle, dog, plasma; for concentration at 0.083 h / concentration at 0.25 h / concentration at 0.5 h / concentration at 1 h / concentration at 2 h / concentration at 4 h / concentration at 8 h / concentration at 24 h: dog PK study 1, IV; for MRT inf: read-out: MRTInf—obs; for Vd: read-out: Vss—obs; for animal's temperature: test animal 3 in group 1 (1 mg/kg IV)
Procedure: The purpose of this study was to examine the pharmacokinetics of Example 101 in beagle dogs. […] An oral PK study was also undertaken in Lewis rats—see Experimental Method C.
Body weight was recoded prior to dosing, and detailed clinical observations were made prior to dosing and throughout the study, as needed.
Subsequently, 17.320 mL Vitamin E TPGS was added, and the solution was vortexed and sonicated. Then, 51.960 mL water was added, and solution was then heated. […] Subsequently, 39.894 mL Vitamin E TPGS was added, and the solution was vortexed and sonicated. Then, 119.682 mL water was added, and the solution was heated.
Blood samples (˜0.3 mL) were collected according to a schedule (detailed below) by venipuncture of peripheral veins except for the dosing vein, and EDTA-K2 was used as anticoagulant. Within 30 minutes of collection, the samples were centrifuged at approximately 2000×g for 10 minutes at 4° C. to obtain blood plasma. The plasma samples were immediately divided into two aliquots (˜75 μL each), transferred to a cryogenic vial, and stored in a freezer at −75±15° C. prior to analysis. […]
The experiments were conducted on a Shimadzu DGU-20A5R and AB API 5500+LC/MS/MS instrument with an Agilent Poroshell EC-C18 4 μm (50×2.1 mm) column. A gradient of 95% water (0.1% formic acid)/95% acetonitrile (0.1% formic acid) was used as the mobile phase. The sample injection volume was 1 μL, and the flow rate was 0.6 mL/min. The gathered data were used for pharmacokinetic calculations using T½, C0, AUClast, AUCinf, MRTinf, CI, Vss, and Number of Points for Regression as parameters.

[1] = iv, 1 mg/kg, Test Animal 1, read-out: Plasma concentration
[2] = iv, 1 mg/kg, Test Animal 2, read-out: Plasma concentration
[3] = iv, 1 mg/kg, Test Animal 3, read-out: Plasma concentration
[4] = iv, 1 mg/kg, mean, read-out: Average plasma concentration, Mean
[5] = iv, 1 mg/kg, dog PK study 1, intravenous, Test Animal 1
[6] = iv, 1 mg/kg, dog PK study 1, intravenous, Test Animal 2
[7] = iv, 1 mg/kg, dog PK study 1, intravenous, Test Animal 3
[8] = iv, 1 mg/kg, dog PK study 1, intravenous, mean
[9] = po, 5 mg/kg, dog PK study 1, oral, Test Animal 1
[10] = po, 5 mg/kg, dog PK study 1, oral, Test Animal 2
[11] = po, 5 mg/kg, dog PK study 1, oral, Test Animal 3
[12] = po, 5 mg/kg, dog PK study 1, oral, mean
[13] = dog PK study 1, intravenous, Test Animal 1
[14] = dog PK study 1, intravenous, Test Animal 2
[15] = dog PK study 1, intravenous, Test Animal 3
[16] = dog PK study 1, intravenous, mean
[17] = dog PK study 1, oral, Test Animal 1
[18] = dog PK study 1, oral, Test Animal 2
[19] = dog PK study 1, oral, Test Animal 3

**Q.** Which results are given for `CNC(=O)c1[nH]c(C(=O)NC2CCC2)cc1O[C@@H](C)c1ccccc1` (stereo in doubt) [Example 101, N^5-cyclobutyl-N^2-methyl-3-(1-phenylethoxy)-1H-pyrrole-2,5-dicarboxamide]?
**A.** plasma concentration as a function of time (FIG. 1A) (beagle dogs, 1 mg/kg IV, group 1): Decreases in plasma concentration were consistent across all animals and timepoints; time post-administration at which plasma concentrations began to steadily decrease (FIG. 1B) (beagle dogs, 5 mg/kg PO, group 2): approximately 1 h; tolerability (beagle dogs, PK studies 1 and 2, oral and intravenous): capable of being administered orally and intravenously and well tolerated; concentration at 0.083 h [1]: 1.34 µg/mL; concentration at 0.083 h [2]: 1.32 µg/mL; concentration at 0.083 h [3]: 1.37 µg/mL; concentration at 0.083 h [4]: 1.34 µg/mL; concentration at 0.25 h [1]: 1.12 µg/mL; concentration at 0.25 h [2]: 0.954 µg/mL; concentration at 0.25 h [3]: 1.11 µg/mL; concentration at 0.25 h [4]: 1.06 µg/mL; concentration at 0.5 h [1]: 1.04 µg/mL; concentration at 0.5 h [2]: 0.747 µg/mL; concentration at 0.5 h [3]: 0.867 µg/mL; concentration at 0.5 h [4]: 0.885 µg/mL; concentration at 1 h [1]: 0.623 µg/mL; concentration at 1 h [2]: 0.58 µg/mL; concentration at 1 h [3]: 0.52 µg/mL; concentration at 1 h [4]: 0.574 µg/mL; concentration at 2 h [1]: 0.314 µg/mL; concentration at 2 h [2]: 0.265 µg/mL; concentration at 2 h [3]: 0.313 µg/mL; concentration at 2 h [4]: 0.297 µg/mL; concentration at 4 h [1]: 0.0816 µg/mL; concentration at 4 h [2]: 0.0565 µg/mL; concentration at 4 h [3]: 0.068 µg/mL; concentration at 4 h [4]: 0.0687 µg/mL; concentration at 8 h [1]: 0.0157 µg/mL; concentration at 8 h [2]: 0.00365 µg/mL; concentration at 8 h [3]: 0.00461 µg/mL; concentration at 8 h [4]: 0.008 µg/mL; concentration at 24 h [1]: 0 µg/mL; concentration at 24 h [2]: 0 µg/mL; concentration at 24 h [3]: 0 µg/mL; concentration at 24 h [4]: 0 µg/mL; AUC(0-inf) [5]: 2.1 µg·h/mL; AUC(0-t) [5]: 2.07 µg·h/mL; C0 [5]: 1.47 µg/mL; half-life [5]: 1.42 h; MRT inf [5]: 1.54 h; Vd [5]: 0.734 L/kg; AUC(0-inf) [6]: 1.72 µg·h/mL; AUC(0-t) [6]: 1.72 µg·h/mL; C0 [6]: 1.55 µg/mL; half-life [6]: 0.976 h; MRT inf [6]: 1.29 h; Vd [6]: 0.747 L/kg; AUC(0-inf) [7]: 1.87 µg·h/mL; AUC(0-t) [7]: 1.86 µg·h/mL; C0 [7]: 1.52 µg/mL; half-life [7]: 0.992 h; MRT inf [7]: 1.35 h; Vd [7]: 0.719 L/kg; AUC(0-inf) [8]: 1.9 µg·h/mL; AUC(0-t) [8]: 1.88 µg·h/mL; C0 [8]: 1.51 µg/mL; half-life [8]: 1.13 h; MRT inf [8]: 1.39 h; Vd [8]: 0.733 L/kg; AUC(0-t) [9]: 4.52 µg·h/mL; Cmax [9]: 2.22 µg/mL; Tmax [9]: 1 h; AUC(0-inf) [10]: 2.96 µg·h/mL; AUC(0-t) [10]: 2.93 µg·h/mL; Cmax [10]: 1.55 µg/mL; Tmax [10]: 0.5 h; half-life [10]: 1.15 h; MRT inf [10]: 1.62 h; AUC(0-inf) [11]: 5.01 µg·h/mL; AUC(0-t) [11]: 5 µg·h/mL; Cmax [11]: 2.24 µg/mL; Tmax [11]: 1 h; half-life [11]: 0.845 h; MRT inf [11]: 1.83 h; AUC(0-inf) [12]: 3.98 µg·h/mL; AUC(0-t) [12]: 4.15 µg·h/mL; Cmax [12]: 2 µg/mL; Tmax [12]: 0.83 h; half-life [12]: 1 h; MRT inf [12]: 1.73 h; AUClast/D [13]: 2066 (ng · h/mL)/(mg/kg); AUC—% Extrap—obs [13]: 1.54%; Cl_obs [13]: 0.476 L/h/kg; AUClast/D [14]: 1718 (ng · h/mL)/(mg/kg); AUC—% Extrap—obs [14]: 0.298%; Cl_obs [14]: 0.58 L/h/kg; AUClast/D [15]: 1864 (ng · h/mL)/(mg/kg); AUC—% Extrap—obs [15]: 0.353%; Cl_obs [15]: 0.535 L/h/kg; AUClast/D [16]: 1883 (ng · h/mL)/(mg/kg); AUC—% Extrap—obs [16]: 0.73%; Cl_obs [16]: 0.53 L/h/kg; AUClast/D [17]: 903 (ng · h/mL)/(mg/kg); F [17]: 48.0%; AUClast/D [18]: 586 (ng · h/mL)/(mg/kg); AUC—% Extrap—obs [18]: 0.831%; F [18]: 31.1%; AUClast/D [19]: 1000 (ng · h/mL)/(mg/kg); AUC—% Extrap—obs [19]: 0.232%; F [19]: 52.8%; AUClast/D (dog PK study 1, oral, mean): 830 (ng · h/mL)/(mg/kg); AUC—% Extrap—obs (dog PK study 1, oral, mean): 0.531%; F (dog PK study 1, oral, mean): 44.0%; animal's temperature (4 h timepoint): 36.4 °C; animal's temperature (6 h timepoint): 38.1 °C
